Assay results as given in patent US11046690B2, “Pyridazinones and methods of use thereof” (Goldfinch Bio, Inc., priority 2018, dated 2021).
pIC50: −log10 of the molar value.

Biological target: T1, TRPC4 (Homo sapiens, UniProt Q9UBN4)
T1 construct: expressed in transfected cells
T1 sequence (Q9UBN4 1-982 isoform Q9UBN4-5): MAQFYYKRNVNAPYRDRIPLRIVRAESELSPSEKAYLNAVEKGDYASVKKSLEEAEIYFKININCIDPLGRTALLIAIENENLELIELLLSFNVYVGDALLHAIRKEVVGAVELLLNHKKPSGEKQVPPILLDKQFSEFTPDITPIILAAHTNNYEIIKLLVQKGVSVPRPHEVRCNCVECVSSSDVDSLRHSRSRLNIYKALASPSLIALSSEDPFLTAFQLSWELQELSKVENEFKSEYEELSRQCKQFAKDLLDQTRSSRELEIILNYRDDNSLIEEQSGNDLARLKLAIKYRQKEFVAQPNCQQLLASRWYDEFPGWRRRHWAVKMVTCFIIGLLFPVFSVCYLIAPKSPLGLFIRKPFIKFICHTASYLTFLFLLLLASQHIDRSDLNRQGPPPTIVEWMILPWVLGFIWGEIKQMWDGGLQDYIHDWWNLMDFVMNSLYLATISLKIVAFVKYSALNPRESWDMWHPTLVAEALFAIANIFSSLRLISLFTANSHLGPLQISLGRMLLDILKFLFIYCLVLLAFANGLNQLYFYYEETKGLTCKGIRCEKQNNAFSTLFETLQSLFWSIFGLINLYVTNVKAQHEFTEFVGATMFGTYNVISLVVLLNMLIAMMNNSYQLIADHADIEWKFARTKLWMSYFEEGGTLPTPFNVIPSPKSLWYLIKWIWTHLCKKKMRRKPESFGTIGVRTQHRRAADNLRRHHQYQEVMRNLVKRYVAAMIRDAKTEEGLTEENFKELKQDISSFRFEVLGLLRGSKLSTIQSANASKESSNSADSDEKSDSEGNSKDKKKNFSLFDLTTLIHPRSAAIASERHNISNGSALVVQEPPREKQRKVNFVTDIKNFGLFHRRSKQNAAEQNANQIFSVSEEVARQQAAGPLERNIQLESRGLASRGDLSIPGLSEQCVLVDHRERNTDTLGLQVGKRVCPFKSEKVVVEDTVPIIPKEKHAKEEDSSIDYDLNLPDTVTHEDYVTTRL
Test: TRPC4 activity assay (FLIPR calcium fluorescence, Englerin A stimulation)
Assay type: cell-based
Settings: HEK-TREx hTRPC4 cells, 100 nM Englerin A stimulation; read-out: TRPC4 (IC50 class)
Method: ICLN-1694 cells (HEK-TREx hTRPC4) expressing TRPC4 were generated as follows. Commercially available HekTrex-293 cells were seeded at 0.7×10^6 cells/well in a 1×6-well plate 24 hrs prior to transfection using 2 mL cell growth media containing no antibiotics (1× DMEM/high glucose (Hyclone #SH30022.02); 10%0/fetal bovine serum (Sigma) 2 mM sodium pyruvate, 10 mM HEPES). […] On day 2, 2 μg of plasmid DNA plus 6 μl of Xtreme-GENE HP reagent in Optimem (200 μl total volume) was prepared and incubated for 15 min at room temperature. This plasmid solution was then gently overlayed dropwise onto each well and the plate was gently swirled to mix complex with the media for approximately 30 seconds. Transfected cells were incubated at 37° C. in a 10% C02 incubator for 24 hrs. The transfected cells were harvested and transferred into 2×150 mm dishes containing cell growth media with no antibiotics at 37° C.
The next day selection was initiated to generate a stable pool by adding cell growth media containing 150 μg/mL Hygromycin and 5 μg/mL Blasticidin and cells were allowed to grow. Media with the selection agent was changed every 1-2 days as needed to remove dead cells. After 7 days, the hygromycin concentration was reduced to 75 μg/mL and cells growth was allowed to continue.
Single clones were selected as follows. The stable pool was diluted to 10 cells/mL and seeded (100 μl/well) into 24×96 well plates (˜1 cell/well) and allowed to grow for 7 days in cell growth media. Fresh media (100 μl) was added and the cells allowed to grow for another 1-2 weeks and then stored frozen or used immediately.
10-point dose response curves were generated using the Echo-550 acoustic dispenser. Compound source plates were made by serially diluting compound stocks to create 10 mM, 1 mM, and 0.1 mM solutions in DMSO into Echo-certified LDV plates. The Echo then serially spotted 100% DMSO stock solutions into source dose response plates to generate a 4-fold dilution scheme. 100% DMSO was added to the spotted dose response plates to bring the final volume to 5 μl. […] of the dose response stock plate was then spotted into pre-incubation and stimulation assay plates. 50 μl of pre-incubation buffer and 100 μl of stimulation buffer was then added to the plates resulting in a final assay test concentration range of 30 μM to 0.0001 μM with a final DMSO concentration of 0.3%.
ICLN-1694 cells (HEK-TREx hTRPC4) were plated onto 384 well, black pdl-coated microplates and maintained in cell growth media supplemented with 1 μg/mL tetracycline the day prior to use for experiments. TRPC4 expression was induced by the application of 1 μg/mL tetracycline at the time of plating. […] Cells were incubated at room temperature, protected from light, for 60-90 minutes. After the incubation period, the dye was removed and replaced with 10 μl of EBSS. Cell, pre-incubation and stimulation plates were loaded onto the FLIPR-II and the assay was initiated. The FLIPR measured a 10 second baseline and then added 10 μl of 2X compounds (or controls). Changes in fluorescence were monitored for an additional 5 minutes. After a 5 minute pre-incubation, 20 μl of 2X Englerin A (with 1X compound or controls) was added to the cell plate. The final Englerin A stimulation concentration in the assay was 100 nM. After the Englerin A addition, changes in fluorescence were monitored for an additional 5 minutes.
Compound modulation of TRPC4 calcium response was determined as follows. After the Englerin A, fluorescence was monitored for a 5-minute period. The maximum relative fluorescence response (minus the control response of 1 μM of an internal control compound known to maximally block TRPC4 calcium response, the “REF INHIB” in the formula below) was captured and exported from the FLIPR.
Compound effect is calculated as % inhibition using the following formula:
[formula] wherein “RFU” is the relative fluorescent units.

Compound | pIC50
O=c1[nH]ncc(N2CCc3c(ncnc3Oc3ccc(F)cc3Cl)C2)c1Cl [Compound 104] | > 7.30
CC1Cc2c(ncnc2Oc2ccc(F)cc2Cl)CN1c1cn[nH]c(=O)c1Cl (single isomer, unassigned) [Compound 117] | 6.30 to 7.30
